Data on two compounds can be found in patent publication US7579338B2, “Methods and compositions for treating atheroma, tumors and other neoplastic tissues” (Pharmacyclics, Inc., priority 1999, dated 2009).

Test [1] can be described thus: Oxidation of ascorbate under approximate physiologic conditions (UV-vis, 266 nm). The test is classed as biochemical. How it is done:
• Stock ascorbic acid (Sigma A 5960) (prepared fresh): 8.82 mg/(25 mL 176.1 mg/mmol)=2.00 mM • Stock GdTex: 5.72 mg/(10.0 mL water. 1148 mg/mmol)=498 μM • Stock 4× Buffer: 200 mM HEPES, pH 7.5; 400 mM NaCl The stock solutions were prepared using ACS grade water (Aldrich 32,007-2). 4× buffer was prepared using NaCl 99.999% (Aldrich 20,443-9), HEPES (Gibco-BRL 11344-025), and sodium hydroxide 99.99% (Aldrich 30,657-6), and was treated with Chelex® 100 (BioRad 143-2832) prior to use to remove trace iron contaminants. These were combined to form the reaction mixture analyzed by UV-vis spectroscopy: 400 μL 4× Buffer, 200 μL Ascorbic Acid Stock, 979.9 μL Water, 20.1 μL GdTex Stock.
In brief, a reaction mixture was prepared containing ascorbate, buffer, and water. A lesser amount of texaphyrin catalyst, eg., 0.025 molar equivalent, was added to this reaction mixture, vortexed briefly, and placed in a quartz cuvette (0.2, 0.5, 1.0, 2.0, 5.0, or 10 mm path length as needed to give ca. 1.8 absorbance reading at 266 nm). The cuvette was placed in a UV-vis spectrophotometer and the absorbance was read every 60 seconds for ten minutes. The absorbance at 266 nm plotted against time initially gaive a straight line. The slope of initial time points (eg., plotting as M concentration vs time in minutes) provided a rate which was used as a point in a saturation (Michaelis-Menton) plot. This process was repeated at various concentrations of ascorbate. A background rate of ascorbate oxidation was also measured at each concentration of ascorbate using this procedure without GdTex catalyst. The resulting background rate of oxidation was subtracted from the rate of oxidation in the presence of catalyst.
2B. […] 2C. […] 2D. By following the procedure of Example 2A, using an initial ascorbate concentration of 1.23 mM and a texaphyrin concentration of 61.5 μM, the results summarized in below in Table 1 were obtained.

Test [2] has as its system EMT-6 mouse mammary sarcoma cells. Description: Proliferation of EMT-6 cells with NADPH and texaphyrin (MTT). The test is classed as cell-based. The settings on record: for inhibitory effect of texaphyrin with 1000 μM and 333 μM NADPH: NADPH 1000 μM and 333 μM; for inhibitory effect of texaphyrin at lower concentrations of NADPH: NADPH below 333 μM; for inhibitory effect of texaphyrin in the absence of NADPH: no NADPH. How it is done:
5A. Materials and Methods. MES-SA cells were allowed to adhere to (4) 96-well microtiter plates (4000 cells per well) overnight in 160 μL RPMI medium. Stock ascorbate 3.0 mM in medium (80 μL) was serially diluted (1:3) in rows B through F (discarding the final 80 μL). Row G was used for no-ascorbate control. Stock solutions of GdTex (2 mM in 5% mannitol) diluted in medium and 5% mannitol were prepared and added to the plates to give a final volume of 200 μL in all wells. Columns 2 and 3 contained 100 μM GdTex; columns 4 and 5 contained 75 μM GdTex, columns 6 and 7 contained 50 μM GdTex; columns 8 and 9 contained 25 μM GdTex; and columns 10 and 11 contained no GdTex (all concentrations final). Final mannitol concentration was 0.25% in all wells. The plates were incubated at 37 C under a 5% CO2/95% air atmosphere. Complex-containing medium was exchanged for fresh medium after 5 hours, and plates were incubated an additional 72 hours prior to analysis for viability using the tetrazolium dye, MTT (Mosmann, T. J. Immunol. Methods 1983, 65, 55-63). In brief, 20 μL MTT dye (Sigma Chemical, St. Louis, Mo., catalogue no. M 2128, 5 mg/mL solution in phosphate buffered saline) was added to cells in media to give a final volume of 200 μL. The plates were incubated at 37° C. for ca. 2 hours, whereupon the media was removed and isopropyl alcohol (100 μL/well) was added. Plates were vortexed for ca. 3 minutes to dissolve MTT formazan, then read on a microplate reader at 560-650 nm. Plate absorbances were normalized to wells containing neither ascorbate nor GdTex to allow plate to plate comparison. Data for each concentration of GdTex and ascorbate is the average of eight wells.
The proliferation of EMT-6 mouse mammary sarcoma (Rockwell, S. C., et al., J. Natl. Cancer Inst. 1972, 49, 735-749) cells grown in RPMI-1640 medium in the presence of NADPH and motexafin lutetium was used to assess the production of hydrogen peroxide under cell culture conditions following the protocol outlined in the previous example.
The proliferation of EMT-6 mouse mammary sarcoma (Rockwell, S. C., et al., J. Natl. Cancer Inst. 1972, 49, 735-749) cells grown in RPMI-1640 medium in the presence of NADPH and GdTex was used to assess the production of hydrogen peroxide under cell culture conditions following the protocol outlined in the previous example.

Another test concerns MES-SA cells. Put plainly: Response of MES-SA cells to ionizing radiation, microtiter plate format (MTT). It is filed as cell-based, human. The method, then: The response of MES-SA cells to ionizing radiation was studied using the microtiter plate format to confirm radiation sensitization potential. This assay is used to assess rapidly the effects of irradiation under a variety of conditions.
10A. Materials and Methods. MES-SA cells were incubated at 37° C. and allowed to adhere to 96-well microtiter plates (1000 cells per well) overnight in 160 μL McCoys 5A containing 10% FBS (Gibco-BRL) and ca. 2% penicillin/streptomycin solution (Sigma). BSO or media (20 μL) was added, respectively to test and control wells, 24 h prior to irradiation. Metallotexaphyrin complex (up to 100 μM) was added to the test wells to give a final volume of 200 μL, 18-24 h prior to irradiation. Plates were irradiated using a 137Cs irradiator (Model 40 Gammacell, J. L. Shepherd & Assoc., San Fernando, Calif.) at a dose rate of 33.25 Rad/min. A lead brick (2″ diameter) was positioned to protect a column of wells (no. 11) from ionizing radiation. Plate absorbances were normalized to shielded wells to allow plate-to-plate comparison. […] Reversing the position of texaphyrin complex-containing wells had no effect on assay outcome. Medium was exchanged immediately after irradiation, and plates were incubated an additional 120 h prior to analysis for viability using the MTT assay (as described, e.g., in Example 5).

The test system of a further test is animal tumor models. The settings on record: reported in the literature; cited from earlier work.

Each structure is given as a SMILES string.

In the case of `CC(=O)[O-].CC(=O)[O-].CCc1c(CC)c2cc3nc(cnc4cc(OCCOCCOCCOC)c(OCCOCCOCCOC)cc4ncc4nc(cc1[n-]2)C(CCCO)=C4C)C(C)=C3CCCO.O.[Gd+3]` [GdTex, motexafin gadolinium], in test [1] (substrate ascorbate, pH 7.5, background subtracted), the “kcat (first-order rate constant for the catalyst), ascorbate oxidation” value came out at 0.00583 s⁻¹. The Km in test [1] (substrate ascorbate, pH 7.5, background subtracted, read-out: KM (dissociation or Michaelis constant), ascorbate oxidation) was 1060 µM. In test [2], the “inhibitory effect of texaphyrin with 1000 μM and 333 μM NADPH” value is reported as “dose-response was observed”; the “inhibitory effect of texaphyrin at lower concentrations of NADPH” value is “No inhibitory effect”; the “inhibitory effect of texaphyrin in the absence of NADPH” value is on record as “no inhibitory effect”. Moreover, the radiation sensitization result with MES-SA cells (100 μM GdTex, no BSO (FIG. 17A)) is “Radiation sensitization became more significant”. Also, in the test with MES-SA cells (all cells pre-incubated with 100 μM BSO (FIG. 17B)), the “effect on apparent viability after irradiation with BSO” value is on record as “greater GdTex-dependent decrease in apparent viability”. Besides, in the test on MES-SA cells (up to 50 μM GdTex for 24 h prior to irradiation, no BSO, adjusted for GdTex alone (FIG. 17A)), the “effect on apparent viability after irradiation” value is “small effect on apparent viability”. Besides, in the test with animal tumor models, the “radiation sensitization in animal tumor models” value was “enhance the efficacy of radiation”.
Regarding `CC(=O)[O-].CC(=O)[O-].CCc1c(CC)c2cc3nc(cnc4cc(OCCOCCOCCOC)c(OCCOCCOCCOC)cc4ncc4nc(cc1[n-]2)C(CCCO)=C4C)C(C)=C3CCCO.O.[Lu+3]` [LuTex, motexafin lutetium], in test [1] (procedure of Example 2A, compared with motexafin gadolinium), the “ascorbate oxidation (in words)” value was “to a lesser extent than in the presence of motexafin gadolinium”. In test [2], the “inhibitory effect of texaphyrin with 1000 μM and 333 μM NADPH” value was “dose-response was observed”; the “inhibitory effect of texaphyrin at lower concentrations of NADPH” value was “No inhibitory effect”; the “inhibitory effect of texaphyrin in the absence of NADPH” value is on record as “no inhibitory effect”. Besides, in the test on MES-SA cells (corresponding experiments, Example 10B), the “radiation sensitization, texaphyrin substituted for GdTex” value is given as “sensitization was not obtained”. In addition, the “radiation sensitization in animal tumor models” value in the test with animal tumor models is “did not possess similar radiation sensitization properties”.

The term Km denotes the concentration of substrate that gives half-maximal velocity.
